Reference: patent publication EP0973746B1, “SUBSTITUTED 3-CYANO QUINOLINES” (Wyeth Holdings Corporation, priority 1997, dated 1998)
Converted amounts (≈) assume the structure as drawn. Where two headings read alike, the source gives them in different places.

How the values were obtained:
LOX = assay: Inhibition of cancer cell growth as measured by cell number, LOX; type: cell-based, human; conditions: Homo sapiens, LOX, 48 h, Table 8;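 also: LOX cells served as a line with low or absent EGFR and HER2/neu expression, in contrast to receptor-overexpressing lines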
Excerpt: (§1) The cell lines were chosen since they overexpressed epidermal growth factor receptor (EGFR) (i.e. A431) or HER2/neu (SKBR3), or had little to no expression of the these receptors (SW620, LOX, MCF7).

[1] = target: T1, His-tagged cytoplasmic domain of EGFR (Homo sapiens, UniProt P00533); assay: Inhibition of Epidermal Growth Factor Receptor Kinase (EGF-R) using recombinant enzyme; type: biochemical; conditions: recombinant enzyme; RR-SRC peptide; average of the number of tests; read-out: IC50;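 also: radiometric kinase assay measuring radiolabeled phosphate transfer from ATP onto the peptide tyrosine by scintillation counting, control is reaction without compound, background subtracted, IC50 from dose-response curve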
T1 construct: containing the EGFR cDNA encoding amino acids 645 - 1186 preceded by Met-Ala-(His)6; made in house; host or cells: Sf9 cells, recombinant baculovirus vHcEGFR52

SW620 = assay: Inhibition of cancer cell growth as measured by cell number, SW620; type: cell-based, human; conditions: Homo sapiens, SW-620, 48 h, Table 8;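 also: SW620 was included as a cell line with little or no EGFR or HER2/neu expression, in contrast to receptor-overexpressing lines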
Excerpt: as §1

MCF7 = assay: Inhibition of cancer cell growth as measured by cell number, MCF7; type: cell-based, human; conditions: Homo sapiens, MCF7, 48 h, Table 8;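 also: MCF7 was included as a line with little or no EGFR or HER2/neu expression, in contrast to the receptor-overexpressing lines of the panel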
Excerpt: as §1

SKBR3 = assay: Inhibition of cancer cell growth as measured by cell number, SKBR3; type: cell-based, human; conditions: Table 8; for IC50: Homo sapiens;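 as to all read-outs here: SK-BR-3 cells were selected as a line overexpressing HER2/neu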
Excerpt: as §1

A431 = assay: Inhibition of cancer cell growth as measured by cell number, A431; type: cell-based, human; conditions: Table 8; for IC50: Homo sapiens, A-431, 48 h;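 as to all read-outs here: human A431 line, picked because it overexpresses epidermal growth factor receptor (EGFR)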
Excerpt: as §1

[2] = target: recombinant human MEK 1 (MAPKK) and recombinant human ERK2 (MAPK); assay: Mitogen Activated Protein Kinase (MAPK) assay, two component coupled MEK 1 / ERK2; type: biochemical; conditions: separate entries for the same compound = evaluated more than one time;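 also: MEK 1-activated ERK2 phosphorylates MBP or Myc peptide with 33P-ATP, filter capture and scintillation counting, inhibitor preincubated with ERK2 30 min at 0 °C, inhibition relative to uninhibited control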
Description: To evaluate inhibitors of the MAP (mitogen activated protein) kinase a two component coupled standard pharmacological test procedure, which measures phosphorylation of a serine/threonine residue in an appropriate sequence in the substrate in the presence and absence of a putative inhibitor, was used. Recombinant human MEK 1 (MAPKK) was first used to activate recombinant human ERK2 (MAPK) and the activated MAPK (ERK) was incubated with substrate (MBP peptide or MYC peptide) in the presence of ATP, Mg^+2 and radiolabeled ^33P ATP. The phosphorylated peptide was captured on a P 81 phosphocellulose filter (paper filter or embedded in microtiter plate) washed and counted by scintillation methods.
The peptide substrates used in the assay are MBP, peptide substrate ([sequence]), or synthetic Myc substrate, ([sequence]•5 TFA. The recombinant enzymes used were prepared as GST fusion proteins of human ERK 2 and human MEK 1. Inhibitor samples were prepared as 10X stocks in 10% DMSO and an appropriate aliquot was used to deliver either 10 ug/ml for a single point screening dose or 100, 10, 1, and 0.1 uM final concentration for a dose response curve. Final DMSO concentrations were less than or equal to 1%.
The reaction was run as follows in 50 mM Tris kinase buffer, pH 7.4 in a reaction volume of 50 ul. The appropriate volume of kinase buffer and inhibitor sample was added to the tube. Appropriate dilution of enzyme was delivered to give 2-5 ug recombinant MAPK (Erk ) per tube. The inhibitor was incubated with MAPK (Erk) for 30 min at 0 deg. […] Recombinant Mek (MAPKK) ( 0.5-2.5 ug) or fully activated Mek (0.05-0.1 units) was added to activate the Erk and incubated for 30 min at 30° C. […] Samples were incubated at 30°C for 30 minutes and the reaction was stopped by adding 25 µl of ice cold 10 %TCA .After samples were chilled on ice for 30 min, 20 µl of sample was transferred onto P 81 phosphocellulose filter paper or appropriate MTP with embedded P 81 filter. Filter papers or MTP were washed 2 times with a large volume of 1% acetic acid, then 2 times with water. The filters or MTP were briefly air dried before addition of scintillant and samples were counted in the appropriate scintillation counter set up for reading ^33P isotope.
The raw data was captured as cpm. Sample replicates were averaged and corrected for background count. Mean cpm data was tabulated by group and % inhibition by a test compound was calculated as (corrected cpm control- corrected. cpm sample/control) X 100 = % inhibition.

[3] = read-out: IC50 LOX, cell number, Sulforhodamine B, 48 hours exposure
[4] = read-out: IC50 SW620, cell number, Sulforhodamine B, 48 hours exposure
[5] = read-out: IC50 MCF7, cell number, Sulforhodamine B, 48 hours exposure
[6] = SK-BR-3, 48 h, read-out: IC50 SKBR3, cell number, Sulforhodamine B, 48 hours exposure
[7] = read-out: IC50 A431, cell number, Sulforhodamine B, 48 hours exposure
[8] = cell number, Sulforhodamine B, 48 hours exposure, read-out: IC50 LOX
[9] = cell number, Sulforhodamine B, 48 hours exposure, read-out: IC50 SW620
[10] = cell number, Sulforhodamine B, 48 hours exposure, read-out: IC50 MCF7
[11] = SK-BR-3, cell number, Sulforhodamine B, 48 hours exposure, read-out: IC50 SKBR3
[12] = cell number, Sulforhodamine B, 48 hours exposure, read-out: IC50 A431
[13] = cell number, Sulforhodamine B, 48 hours exposure

T1 sequence (P00533 669-1210): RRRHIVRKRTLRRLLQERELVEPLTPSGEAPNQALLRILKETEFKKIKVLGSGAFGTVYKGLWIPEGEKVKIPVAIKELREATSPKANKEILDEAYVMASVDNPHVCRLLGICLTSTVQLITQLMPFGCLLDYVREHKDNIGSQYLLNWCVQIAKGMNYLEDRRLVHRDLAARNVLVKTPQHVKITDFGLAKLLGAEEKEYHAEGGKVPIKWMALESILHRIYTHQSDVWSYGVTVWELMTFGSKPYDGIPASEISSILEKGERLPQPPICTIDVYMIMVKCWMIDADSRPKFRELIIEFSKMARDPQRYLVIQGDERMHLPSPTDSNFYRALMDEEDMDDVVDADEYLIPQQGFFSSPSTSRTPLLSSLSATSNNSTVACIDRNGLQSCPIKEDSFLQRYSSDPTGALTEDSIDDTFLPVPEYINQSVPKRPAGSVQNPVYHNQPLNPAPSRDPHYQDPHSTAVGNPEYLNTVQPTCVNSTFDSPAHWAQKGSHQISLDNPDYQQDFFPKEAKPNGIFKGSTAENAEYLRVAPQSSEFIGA

SMILES	IC50 (LOX; [3]) [µg/mL]	IC50 [1] [nM]	IC50 (SW620; [4]) [µg/mL]	IC50 (MCF7; [5]) [µg/mL]	IC50 (SKBR3; [6]) [µg/mL]	IC50 (A431; [7]) [µg/mL]	IC50 (LOX; [8]) [µg/mL]	IC50 (SW620; [9]) [µg/mL]	IC50 [2] [nM]	IC50 (MCF7; [10]) [µg/mL]	IC50 (SKBR3; [11]) [µg/mL]	IC50 (A431; [12]) [µg/mL]	IC50 SKBR3 (SKBR3; [13]) [µg/mL]	IC50 A431 (A431; [13]) [µg/mL]
C=CC(=O)Nc1ccc2ncc(C#N)c(Nc3cccc(OC)c3)c2c1 [Example 138, N-{3-Cyano-4-[(3-methoxyphenyl)amino]-6-quinolinyl}-2-propenamide]	1.12 (≈ 3.25 µM)	3.5	3.52 (≈ 10.2 µM)	3.51 (≈ 10.2 µM)	< 0.01	0.44 (≈ 1.28 µM)	–	–	–	–	–	–	–	–
CN(C)CC#CC(=O)Nc1ccc2ncc(C#N)c(Nc3cccc(Br)c3)c2c1 [Example 329, N-[4-[(3-Bromophenyl)amino]-3-cyano-6-quinolinyl]-4-dimethylamino-2-butynamide]	–	0.45	–	–	–	–	0.58 (≈ 1.29 µM)	0.03 (≈ 0.0669 µM)	> 100000	0.75 (≈ 1.67 µM)	0.21 (≈ 0.468 µM)	0.22 (≈ 0.491 µM)	–	–
C#Cc1cccc(Nc2c(C#N)cnc3ccc(NC(=O)C#CC)cc23)c1 [Example 164, N-{3-Cyano-4-[(3-ethynylphenyl)amino]-6-quinolinyl}-2-butynamide]	0.9 (≈ 2.57 µM)	90	–	57 (≈ 163 µM)	0.7 (≈ 2 µM)	0.6 (≈ 1.71 µM)	–	–	> 100000	–	–	–	0.684 (≈ 1.95 µM)	0.322 (≈ 0.919 µM)
N#Cc1cnc2ccc([N+](=O)[O-])cc2c1Nc1ccc(F)c(F)c1 [Example 156, 4-[(3,4-Difluorophenyl)amino]-6-nitro-3-quinolinecarbonitrile]	67 (≈ 205 µM)	500	7.91 (≈ 24.2 µM)	7.57 (≈ 23.2 µM)	7.43 (≈ 22.8 µM)	3.77 (≈ 11.6 µM)	–	–	> 100000	–	–	–	–	–
C=CC(=O)Nc1ccc2ncc(C#N)c(Nc3ccc(Br)cc3)c2c1 [Example 151, N-{4-[(4-Bromophenyl)amino]-3-cyano-6-quinolinyl} -2-propenamide]	0.08 (≈ 0.203 µM)	500	< 0.01	0.61 (≈ 1.55 µM)	0.07 (≈ 0.178 µM)	0.09 (≈ 0.229 µM)	–	–	–	–	–	–	–	–
CSc1cccc(Nc2c(C#N)cnc3ccc(N)cc23)c1 [Example 363, 6-Amino-4-[(3-methylsulfanylphenyl)amino]-3-quinolinecarbonitrile]	–	100	–	–	–	–	0.08 (≈ 0.261 µM)	0.08 (≈ 0.261 µM)	25000	0.8 (≈ 2.61 µM)	0.06 (≈ 0.196 µM)	0.07 (≈ 0.228 µM)	–	–
C#Cc1cccc(Nc2c(C#N)cnc3ccc(NC(=O)C=C)cc23)c1 [Example 165, N-{3-Cyano-4-[(3-ethynyphenyl)amino]-6-quinolinyl)-2-propenamide]	0.8 (≈ 2.36 µM)	0.5	3 (≈ 8.87 µM)	5.8 (≈ 17.1 µM)	0.1 (≈ 0.296 µM)	0.2 (≈ 0.591 µM)	–	–	> 100000	–	–	–	–	–
COCC#CC(=O)Nc1ccc2ncc(C#N)c(Nc3cccc(Br)c3)c2c1 [Example 330, N-[4-[(3-Bromophenyl)amino]-3-cyano-6-quinoliny]-4-methoxy-2-butynamide]	–	0.28	–	–	–	–	0.02 (≈ 0.0459 µM)	0.02 (≈ 0.0459 µM)	> 100000	0.36 (≈ 0.827 µM)	0.23 (≈ 0.528 µM)	0.05 (≈ 0.115 µM)	–	–
C=CC(=O)Nc1ccc2ncc(C#N)c(Nc3ccc(N(C)C)cc3)c2c1 [Example 392, N-[3-Cyano-4-(4-dimethylaminophenylamino)quinolin-6-yl]acrylamide]	–	–	–	–	–	–	1.99 (≈ 5.57 µM)	73.3 (≈ 205 µM)	40000	3.66 (≈ 10.2 µM)	2.61 (≈ 7.3 µM)	0.46 (≈ 1.29 µM)	–	–
CN(C)Cc1cc([N+](=O)[O-])cc2c(Nc3cccc(Br)c3)c(C#N)cnc12 [Example 108, 4-[(3-Bromophenyl)amino]-8-dimethylaminomethyl-6-nitro-3-quinolinecarbonitrile]	6.85 (≈ 16.1 µM)	–	14.6 (≈ 34.1 µM)	7.97 (≈ 18.7 µM)	6.34 (≈ 14.9 µM)	6.6 (≈ 15.5 µM)	–	–	> 100000	–	–	–	–	–
N#Cc1cnc2ccc(NCCCN3CCCC3)cc2c1Nc1cccc(Br)c1 [Example 358, 4-(3-Bromo-phenylamino)-6-(3-pyrrolidin-1-yl-propylamino)-quinoline-3-carbonitrile]	–	100	–	–	–	–	2.5 (≈ 5.55 µM)	4.1 (≈ 9.1 µM)	18000	7.8 (≈ 17.3 µM)	0.7 (≈ 1.55 µM)	0.5 (≈ 1.11 µM)	–	–
Cc1cc([N+](=O)[O-])cc2c(Nc3cccc(Br)c3)c(C#N)cnc12 [Example 105, 4-[(3-Bromophenyl)amino]-8-methyl-6-nitro-3-quinolinecarbonitrile]	0.72 (≈ 1.88 µM)	1	0.06 (≈ 0.157 µM)	2.09 (≈ 5.45 µM)	1.84 (≈ 4.8 µM)	0.13 (≈ 0.339 µM)	–	–	> 100000	–	–	–	–	–
C=C(CC(=O)Nc1ccc2ncc(C#N)c(Nc3cccc(Br)c3)c2c1)C(=O)O [Example 186, 4-[[4-[(3-Bromophenyl)amino]-3-cyano-6-quinolinyl]-amino]-2-methylene-4-oxo-butanoic acid]	46.4 (≈ 103 µM)	100	62.6 (≈ 139 µM)	42.5 (≈ 94.2 µM)	21.5 (≈ 47.6 µM)	37.6 (≈ 83.3 µM)	–	–	–	–	–	–	–	–
C#Cc1cccc(Nc2c(C#N)cnc3ccc(N)cc23)c1 [Example 167, 6-Amino-4-[(3-ethynylphenyl)amino]-3-quinolinecarbonitrile]	5.3 (≈ 18.6 µM)	–	8.1 (≈ 28.5 µM)	8.5 (≈ 29.9 µM)	3.7 (≈ 13 µM)	2.6 (≈ 9.14 µM)	–	–	> 100000	–	–	–	–	–
COc1cc2ncc(C#N)c(Nc3ccc(Sc4ccccc4)c(Cl)c3)c2cc1OC [Example 255, 4-[3-Chloro-4-(phenylthio)phenylamino]-6,7-dimethoxy-3-quinolinecarbonitrile]	0.69 (≈ 1.54 µM)	100	0.58 (≈ 1.29 µM)	2.85 (≈ 6.36 µM)	0.35 (≈ 0.781 µM)	0.59 (≈ 1.32 µM)	–	–	–	–	–	–	–	–
N#Cc1cnc2ccc(NC(=O)C#CCN3CCOCC3)cc2c1Nc1cccc(Br)c1 [Example 328, N-[4-[(3-Bromophenyl)amino]-3-cyano-6-quinolinyl]-4-morpholino-2-butynamide]	–	4.5	–	–	–	–	0.33 (≈ 0.673 µM)	0.15 (≈ 0.306 µM)	> 100000	0.78 (≈ 1.59 µM)	0.02 (≈ 0.0408 µM)	0.19 (≈ 0.387 µM)	–	–
CCOc1cc2ncc(C#N)c(Nc3ccc(F)cc3)c2cc1OCC [Example 260, 4-(4-fluorophenylamino)-6,7-diethoxy-3-quinolinecarbonitrile]	0.26 (≈ 0.74 µM)	–	0.32 (≈ 0.911 µM)	9.98 (≈ 28.4 µM)	0.08 (≈ 0.228 µM)	0.06 (≈ 0.171 µM)	–	–	55000	–	–	–	–	–
CC#CC(=O)Nc1ccc2ncc(C#N)c(Nc3cccc(N(C)C)c3)c2c1 [Example 393, But-2-ynoic Acid [3-Cyano-4-(3-dimethylaminophenylamino)quinolin-6-yl]amide]	–	–	–	–	–	–	0.85 (≈ 2.3 µM)	2.25 (≈ 6.09 µM)	40000	4 (≈ 10.8 µM)	0.84 (≈ 2.27 µM)	0.45 (≈ 1.22 µM)	–	–
COCC=CC(=O)Nc1ccc2ncc(C#N)c(Nc3cccc(Br)c3)c2c1 [Example 65, 4-Methoxy-but-2-enoic acid [4-(3-bromo-phenylamino)-3-cyano-quinolin-6-yl]-amide]	84 (≈ 192 µM)	–	> 100	84 (≈ 192 µM)	60 (≈ 137 µM)	48 (≈ 110 µM)	–	–	40000	–	–	–	–	–
